The values below come from article PMC12679610, “Impact of supersaturation on growth, critical radius, and size in neomycin nanoparticle crystallization using anti-solvent and CTAB” (RSC Advances, 2025).

Series [1] can be described thus: Interfacial energy from ln tind versus 1/T^3(ln S)^2 plot. The format is physicochemical. As to conditions: CTAB 0.6 g kg^−1, 25 °C. On the procedure:
Interfacial energy at the solid–liquid interface, can typically be regarded as an intrinsic property of the system.[100] It is indeed a key parameter strongly influenced by the solvent composition and the presence of surfactants such as CTAB.[29,101] In this study, the effect of CTAB at a constant concentration of 0.6 g kg^−1 on the interfacial energy of the crystallization system of neomycin at various concentrations (20, 30, 40, and 50 g kg^−1) was investigated at a temperature of 25 °C. Key system parameters included the density of neomycin (ρ = 640 kg m^−3), measured using the volume displacement method; the shape factor (f = 0.058)[16,29] and the molar mass (M = 908.88 g mol^−1). […] At various concentrations of neomycin (20, 30, 40, and 50 g kg^−1), a comparison was made between the system stabilized with CTAB and previous studies that utilized PVP as a stabilizer.[29] […] This distinction can be attributed to a significant reduction in surface energy in the presence of CTAB, as well as distinct molecular interactions between neomycin and the cationic surfactant, which subsequently influenced solubility and nucleation behavior.[102] […] The proposed mechanism for this observation includes the effective adsorption of CTAB onto nanoparticle surfaces, alterations in the local solubility of neomycin, and the formation of stable electrical double layers at the interface.[103] Furthermore, increased agitation enhanced mass transfer, improved surfactant distribution, and promoted the formation of stable nuclei, ultimately leading to a significant reduction in surface energy and effective suppression of nanoparticle aggregation.[104]

A short description of series [2]: Critical nucleus radius calculated from classical nucleation theory (eqn S16). The format is physicochemical. As to conditions: CTAB 0.6 g kg^−1, 25 °C. The text has this: This study comprehensively investigated the influence of CTAB surfactant on neomycin crystallization. […] The supersaturation (S), as the primary driving force, directly affects the induction time, critical radius, growth rate, solubility, nanoparticle size, and nucleation mechanism.[33] CTAB operates through selective adsorption on crystalline surfaces, substantially influencing the nucleation pathway.[75,76] […] Quantitative data for these parameters are presented in Table 2, with the growth rate (intensity %) and nanoparticle size data being experimentally derived from DLS analysis.
As previously explored in relation to supersaturation, growth rate, and nanoparticle size (Fig. 16), the experimental results shown in Fig. 17 further illustrate the critical radius, growth kinetics, and nanoparticle size across varying supersaturation levels.[86] Based on data obtained from DLS analysis and critical radius calculations (eqn S16), it is observed that decreasing supersaturation leads to a significant increase in crystal growth rates, resulting in the formation of larger nanoparticles.[14–16,87] […] This phenomenon follows fundamental crystallization kinetics principles where, at high supersaturation levels, the elevated concentration of solute species leads to the formation of a greater number of primary nuclei.[89] Simultaneously, the distribution of solute molecules among these numerous nuclei results in decreased growth rates for crystals, ultimately producing smaller nanoparticles with a […] size distribution.[86] The role of the CTAB stabilizer in this system is particularly crucial. Through surface adsorption mechanisms, CTAB not only prevents nanoparticle aggregation but also precisely modulates growth kinetics, enabling better control over final particle dimensions.[90] These synergistic effects contribute to the formation of colloidally stable nanoparticles with uniform size distributions. An important observation is the direct correlation between nucleation duration and critical particle size, where extended nucleation times cause the formation of smaller particles.[91] Furthermore, dynamic parameters such as agitation rate and controlled shock pulses serve as effective tools for fine-tuning nanoparticle characteristics.[92]

`NC[C@@H]1O[C@H](O[C@H]2[C@@H](O)[C@H](O[C@@H]3[C@@H](O)[C@H](N)C[C@H](N)[C@H]3O[C@H]3O[C@H](CN)[C@@H](O)[C@H](O)[C@H]3N)O[C@@H]2CO)[C@H](N)[C@@H](O)[C@@H]1O.O=S(=O)(O)O` [neomycin sulfate]: the “Interfacial energy this work” value in series [1] (initial neomycin 20 g kg solvent^−1) is on record as 1.33 mJ m^−2; in series [1] (initial neomycin 30 g kg solvent^−1), 1.41 mJ m^−2; in series [1] (initial neomycin 40 g kg solvent^−1), 1.9 mJ m^−2; in series [1] (initial neomycin 50 g kg solvent^−1), 2.14 mJ m^−2. In addition, the Critical radius in series [2] (300 rpm, initial neomycin 20 g kg^−1, S 1.18) is listed as 1.689 nm; in series [2] (300 rpm, initial neomycin 20 g kg^−1, S 1.21), 1.467 nm; in series [2] (300 rpm, initial neomycin 20 g kg^−1, S 1.33), 0.981 nm; in series [2] (300 rpm, initial neomycin 20 g kg^−1, S 1.45), 0.753 nm; in series [2] (300 rpm, initial neomycin 20 g kg^−1, S 1.66) it was 0.552 nm; in series [2] (350 rpm, initial neomycin 30 g kg^−1, S 1.2), 1.534 nm. Further, the Critical radius is recorded as 1.254 nm in series [2] (350 rpm, initial neomycin 30 g kg^−1, S 1.25); 1.133 nm in series [2] (350 rpm, initial neomycin 30 g kg^−1, S 1.28); 0.782 nm in series [2] (350 rpm, initial neomycin 30 g kg^−1, S 1.43); 0.545 nm in series [2] (350 rpm, initial neomycin 30 g kg^−1, S 1.67); 1.099 nm in series [2] (400 rpm, initial neomycin 40 g kg^−1, S 1.29); 0.957 nm in series [2] (400 rpm, initial neomycin 40 g kg^−1, S 1.379). Further, the Critical radius in series [2] (400 rpm, initial neomycin 40 g kg^−1, S 1.48) is listed as 0.714 nm; in series [2] (400 rpm, initial neomycin 40 g kg^−1, S 1.66), 0.552 nm; in series [2] (400 rpm, initial neomycin 40 g kg^−1, S 1.9), 0.436 nm; in series [2] (450 rpm, initial neomycin 50 g kg^−1, S 1.351), 0.932 nm; in series [2] (450 rpm, initial neomycin 50 g kg^−1, S 1.408) it was 0.817 nm; in series [2] (450 rpm, initial neomycin 50 g kg^−1, S 1.47), 0.726 nm. The Critical radius in series [2] (450 rpm, initial neomycin 50 g kg^−1, S 1.666) is reported as 0.548 nm; in series [2] (450 rpm, initial neomycin 50 g kg^−1, S 1.785), 0.483 nm.
